# Measured values reported in patent publication US20120252721A1 (priority 2011, published 2012).
# How the values were obtained:
# [1] = tested on: ZS11-luc L31V (HCV genotype 1b replicon); assay: Luciferase replicon transient transfection assay, ZS11-luc L31V; assay type: cell-based, hepatitis C virus; conditions: for EC50: Hepatitis C virus, 96 h, Huh7.5 cells, 4 days
# Description: (§1) The luciferase replicon transient transfection assay measures the ability of a test compound to inhibit the replication of a transiently-transfected HCV luciferase-bearing wild-type or mutant replicon in cured human hepatoma cells (Huh7.5). The inhibition of HCV replication was measured by quantification of luciferase protein expression. This assay has been validated using a panel of genotype 1a and 1b replicons bearing mutations known to be associated with resistance to BMS-790052. Briefly, subconfluent Huh7.5 cells were electroporated with 10 μg of wild-type or mutant luciferase-bearing HCV replicon RNA. The cells were then seeded in 96-well opaque white plates at 3×10^4 cells/well in 150 μL/well and incubated for 4 hrs at 37° C./5% CO2. Ten 1:5 serial dilutions of each test compound were made in media (DMEM containing glucose, L-glutamine and sodium pyruvate, 10% fetal bovine serum, 100 IU/mL penicillin, 100 μg/mL streptomycin, 2 mM GlutaMAX, and 1×MEM non-essential amino acids (Mediatech, Inc. and Invitrogen Corp.)) at concentrations that were 4× higher than the final concentrations to be tested and 50 μL/well was added to the transfected cells. Untreated, mock-transfected cells served as a negative control of luciferase expression. The plates were incubated at 37° C./5% CO2 for 4 days whereupon the media was removed and 50 μL of ONE-glo luciferase substrate (Promega) was added to each well. The plates were agitated on a rotating platform at room temperature for 3 min and read in a Victor^3V microplate reader (Perkin-Elmer) using a 700 nm cut-off filter with a 1 sec read time. EC50 values were calculated from dose response curves from the resulting best-fit equations determined by Microsoft Excel and XLfit 4.1 software.
# [2] = tested on: ZS11-luc WT (HCV genotype 1b replicon); assay: Luciferase replicon transient transfection assay, ZS11-luc WT; assay type: cell-based, hepatitis C virus; conditions: Hepatitis C virus, Huh7.5, 96 h, genotype 1b, ZS11-luc WT, Huh7.5 cells, 4 days
# Description: as §1
# [3] = tested on: 1a-luc WT (HCV genotype 1a replicon); assay: Luciferase replicon transient transfection assay, 1a-luc WT; assay type: cell-based; conditions: Hepatitis C virus, 96 h, Huh7.5 cells, 4 days
# Description: as §1
# [4] = tested on: 1a-luc L31V (HCV genotype 1a replicon); assay: Luciferase replicon transient transfection assay, 1a-luc L31V; assay type: cell-based, hepatitis C virus; conditions: for EC50: Hepatitis C virus, 96 h, Huh7.5 cells, 4 days
# Description: as §1
# [5] = tested on: 1a-luc Y93H (HCV genotype 1a replicon); assay: Luciferase replicon transient transfection assay, 1a-luc Y93H; assay type: cell-based, hepatitis C virus; conditions: for EC50: Hepatitis C virus, 96 h, Huh7.5 cells, 4 days
# Description: as §1
# [6] = tested on: ZS11-luc Y93H (HCV genotype 1b replicon); assay: Luciferase replicon transient transfection assay, ZS11-luc Y93H; assay type: cell-based, hepatitis C virus; conditions: for EC50: Hepatitis C virus, 96 h, Huh7.5 cells, 4 days
# Description: as §1
# [7] = tested on: 1a-luc Q30E (HCV genotype 1a replicon); assay: Luciferase replicon transient transfection assay, 1a-luc Q30E; assay type: cell-based, hepatitis C virus; conditions: for EC50: Hepatitis C virus, 96 h, Huh7.5 cells, 4 days
# Description: as §1
# [8] = tested on: 1a-luc Q30R (HCV genotype 1a replicon); assay: Luciferase replicon transient transfection assay, 1a-luc Q30R; assay type: cell-based, hepatitis C virus
# Description: as §1
# [9] = tested on: HCV genotype 1a replicon, NS5A K24E; assay: Luciferase replicon transient transfection assay, genotype 1a NS5A K24E; assay type: cell-based, hepatitis C virus
# Description: as §1
# [10] = tested on: 1a-luc Y93C (HCV genotype 1a replicon); assay: Luciferase replicon transient transfection assay, 1a-luc Y93C; assay type: cell-based, hepatitis C virus
# Description: as §1
# [11] = tested on: ZS11-luc L31M (HCV genotype 1b replicon); assay: Luciferase replicon transient transfection assay, ZS11-luc L31M; assay type: cell-based, hepatitis C virus
# Description: as §1
# [12] = tested on: ZS11-luc R30E (HCV genotype 1b replicon); assay: Luciferase replicon transient transfection assay, ZS11-luc R30E; assay type: cell-based, hepatitis C virus
# Description: as §1
# [13] = tested on: ZS11-luc Y93N (HCV genotype 1b replicon); assay: Luciferase replicon transient transfection assay, ZS11-luc Y93N; assay type: cell-based, hepatitis C virus
# Description: as §1
# [14] = tested on: ZS11-luc L31F (HCV genotype 1b replicon); assay: Luciferase replicon transient transfection assay, ZS11-luc L31F; assay type: cell-based, hepatitis C virus
# Description: as §1
# [15] = tested on: 1a-luc L31F (HCV genotype 1a replicon); assay: Luciferase replicon transient transfection assay, 1a-luc L31F; assay type: cell-based, hepatitis C virus
# Description: as §1
# [16] = tested on: 1a-luc Y93N (HCV genotype 1a replicon); assay: Luciferase replicon transient transfection assay, 1a-luc Y93N; assay type: cell-based, hepatitis C virus
# Description: as §1
# [17] = tested on: ZS11-luc P32L (HCV genotype 1b replicon); assay: Luciferase replicon transient transfection assay, ZS11-luc P32L; assay type: cell-based, hepatitis C virus
# Description: as §1
# [18] = tested on: ZS11-luc L28T (HCV genotype 1b replicon); assay: Luciferase replicon transient transfection assay, ZS11-luc L28T; assay type: cell-based, hepatitis C virus
# Description: as §1
# [19] = tested on: HCV genotype 1a replicon, NS4B E15G; assay: Luciferase replicon transient transfection assay, genotype 1a NS4B E15G; assay type: cell-based, hepatitis C virus
# Description: as §1
# (§2) To determine the replication capacity of each mutant relative to the wild-type parental replicon, transfected cells were plated on two plates and were not treated with compound. Luciferase activity was measured at time points of 4 hrs and 4 days after plating for each replicon. Replication capacity was calculated by dividing the day 4 CPS by the 4 hour CPS for each replicon and determining the percentage present for each mutant replicon relative to wild-type replicon values. The NS3, NS4B, and NS5B mutants were prepared and tested according to the methods described herein.
# [20] = tested on: 1a-luc Q30H (HCV genotype 1a replicon); assay: Luciferase replicon transient transfection assay, 1a-luc Q30H; assay type: cell-based, hepatitis C virus
# Description: as §1
# [21] = tested on: HCV genotype 1a replicon, NS5A E295G; assay: Luciferase replicon transient transfection assay, genotype 1a NS5A E295G; assay type: cell-based, hepatitis C virus
# Description: as §1
# [22] = tested on: 1a-luc Q30K (HCV genotype 1a replicon); assay: Luciferase replicon transient transfection assay, 1a-luc Q30K; assay type: cell-based, hepatitis C virus
# Description: as §1
# [23] = tested on: ZS11-luc Y93C (HCV genotype 1b replicon); assay: Luciferase replicon transient transfection assay, ZS11-luc Y93C; assay type: cell-based, hepatitis C virus
# Description: as §1
# [24] = tested on: HCV genotype 1a replicon, NS3 T260A; assay: Luciferase replicon transient transfection assay, genotype 1a NS3 T260A; assay type: cell-based, hepatitis C virus
# Description: as §1, §2
# [25] = tested on: 1a-luc M28T (HCV genotype 1a replicon); assay: Luciferase replicon transient transfection assay, 1a-luc M28T; assay type: cell-based, hepatitis C virus
# Description: as §1
# [26] = tested on: 1a-luc L31M (HCV genotype 1a replicon); assay: Luciferase replicon transient transfection assay, 1a-luc L31M; assay type: cell-based, hepatitis C virus
# Description: as §1
# [27] = tested on: 1a-luc P32L (HCV genotype 1a replicon); assay: Luciferase replicon transient transfection assay, 1a-luc P32L; assay type: cell-based, hepatitis C virus
# Description: as §1
# [28] = Hepatitis C virus, 96 h, Huh7.5 cells, 4 days
smiles,measurement,setting,value
COC(=O)N[C@H](C(=O)N1CCCC1c1ncc(-c2csc3c(-c4ccc(-c5cnc(C6CCCN6C(=O)C(c6ccccc6)N6CCCCC6)[nH]5)cc4)csc23)[nH]1)C(C)C (stereo partly shown) [Compound A219],Ratio,[1],4
same,EC50,[1],0.05 nM
same,EC50,[2],0.01 nM
same,EC50,[3],0.04 nM
same,Ratio,[4],442
same,EC50,[4],18 nM
same,Ratio,[5],4841
same,EC50,[5],210 nM
same,Ratio,[6],49
same,EC50,[6],0.6 nM
same,Ratio,[7],25
same,EC50,[7],1 nM
COC(=O)N[C@H](C(=O)N1CCC[C@H]1c1ncc(-c2ccc(-c3cc4sc(-c5ccc(-c6c[nH]c(C7CCCN7C(=O)[C@H](NC(=O)OC)c7ccccc7)n6)cc5)cc4s3)cc2)[nH]1)C(C)C (stereo partly shown) [Compound A192],Ratio,[1],20
same,EC50,[1],0.05 nM
same,EC50,[2],0.003 nM
same,EC50,[3],0.02 nM
same,Ratio,[4],678
same,EC50,[4],11 nM
same,Ratio,[5],5072
same,EC50,[5],79 nM
same,Ratio,[6],138
same,EC50,[6],0.4 nM
same,Ratio,[7],597
same,EC50,[7],9 nM
"COC(=O)N[C@H](C(=O)N1CCC[C@H]1c1nc(-c2ccc(-c3ccc(-c4c[nH]c([C@@H]5CCCN5C(=O)[C@@H](NC(=O)OC)C(C)C)n4)cc3)cc2)c[nH]1)C(C)C [BMS-790052, reference compound]",Ratio,[1],23
same,EC50,[1],0.4 nM
same,Ratio,[8],95
same,EC50,[8]; [28],2 nM
same,EC50,[2],0.02 nM
same,EC50,"[9]; Hepatitis C virus, genotype 1a, HCV region NS5A, mutation K24E",0.032 nM
same,Ratio,[9]; {},1.78
same,Ratio,[10],287
same,EC50,[10]; [28],7 nM
same,EC50,[3],0.026 nM
same,Ratio,[11],3
same,EC50,[11]; [28],0.06 nM
same,Ratio,[4],899
same,EC50,[4],23 nM
same,Ratio,[12],7
same,EC50,[12]; [28],0.1 nM
same,Ratio,[5],1392
same,EC50,[5],35 nM
same,Ratio,[13],33
same,EC50,[13]; [28],0.7 nM
same,Ratio,[6],19
same,EC50,[6],0.4 nM
same,Ratio,[14],7
same,EC50,[14]; [28],0.1 nM
same,Ratio,[15],43
same,EC50,[15]; [28],1 nM
same,Ratio,[16],7842
same,EC50,[16]; [28],192 nM
same,Ratio,[17],9
same,EC50,[17]; [28],0.2 nM
same,Ratio,[18],25
same,EC50,[18]; [28],0.5 nM
same,EC50,"[19]; Hepatitis C virus, HCV region NS4B, mutation E15G",0.029 nM
same,Ratio,[19]; NS4B E15G,1.62
same,Ratio,[20],155
same,EC50,[20]; [28],4 nM
same,EC50,"[21]; Hepatitis C virus, genotype 1a, HCV region NS5A, mutation E295G",0.028 nM
same,Ratio,[21]; {},1.56
same,Ratio,[22],752
same,EC50,[22]; [28],19 nM
same,Ratio,[7],2935
same,EC50,[7],74 nM
same,Ratio,[23],2
same,EC50,[23]; [28],0.04 nM
same,EC50,"[24]; Hepatitis C virus, genotype 1a, HCV region NS3, mutation T260A",0.031 nM
same,Ratio,[24]; {},1.74
same,Ratio,[25],165
same,EC50,[25]; [28],4 nM
same,Ratio,[26],115
same,EC50,[26]; [28],3 nM
same,Ratio,[27],142
same,EC50,[27]; [28],4 nM
